Assay results as given in US8884101B2, “Method of gene introduction into Triticum plant using Agrobacterium, and a method of producing transformed Triticum plant” (priority 2009, dated 2014).

Test system: immature embryos of bread wheat (variety: Fielder)
Assay: GUS gene expression in wheat immature embryos; effect of adding plant hormone to coculture medium (Example 9)
Format: cell-based, bread wheat (Triticum aestivum)
Conditions: 5 days resting culture; for degree of GUS gene expression relative to coculture medium not containing plant hormones (FIG. 5): 0.5 μM in coculture medium, 10 immature embryos per group; for degree of GUS gene expression relative to coculture medium not containing plant hormones (FIG. 6) / degree of GUS gene expression relative to coculture medium not containing plant hormones (FIG. 4): 5 μM in coculture medium; for degree of GUS gene expression relative to coculture medium not containing plant hormones (FIG. 6): 18 or 19 immature embryos per group; for degree of GUS gene expression relative to coculture medium not containing plant hormones (FIG. 4): 16 or 17 immature embryos per group
Protocol: Bread wheat (variety: Fielder) was cultivated in a greenhouse equipped with an air conditioner, and the immature embryos (size: 1.5 to 3.0 mm) of the bread wheat were aseptically collected on the 14th day after flowering and were washed once with an Inf liquid medium. Pretreatment (centrifugation at 15000 rpm for 10 min) was performed to enhance the efficiency of gene introduction in an Inf liquid medium. Agrobacterium strain EHA101 (pIG121Hm) was suspended at about 1.0×10^9 cfu/mL in an Inf liquid medium containing 100 μM acetosyringone to prepare an inoculation source. The inoculation source was added to the immature embryos, and the mixture was stirred for 30 sec, followed by leaving to stand at room temperature for 5 min. The immature embryos inoculated with Agrobacterium were placed onto a Co-Cul coculture medium containing 100 μM acetosyringone, 5 μM AgNO3, and 5 μM CuSO4 and also containing 5 μM kinetin or 4PU; 0.5 μM 2,4-D, dicamba, or picloram; or 5 μM 2,4-D, dicamba, or picloram in such a manner that the scutellum faced upward, and were cocultured at 23° C. in the dark. As a control, a Co-Cul coculture medium not containing any plant hormone was used.
On the 2nd day from the beginning of the coculture, the radicles, germs, and embryonic axes were excised using a scalpel and tweezers. The immature embryos were placed onto a resting medium (the composition is the same as that described in Example 1), followed by cultivation at 25° C. in the dark for 5 days. Subsequently, 10 to 19 immature embryos were collected from each group and were immersed in a 0.1 M phosphate buffer (pH 6.8) containing 0.1% Triton X-100 at 37° C. for 1 hr. The phosphate buffer was removed, and a phosphate buffer containing 1.0 mM 5-bromo-4-chloro-3-indolyl-β-D-glucuronic acid (X-gluc) and 20% methanol was added thereto. After treatment at 37° C. for 24 hr, the immature embryos in each group were evaluated for expression of the GUS gene in six grades: 4 (expressed in 75% or more of scutellum), 3 (expressed in 50% to 74% of scutellum), 2 (expressed in 25% to 49% of scutellum), 1 (expressed in 5% to 24% of scutellum), 0.5 (expressed in 1% to 4% of scutellum), and 0 (no expression).
A part of the immature embryos in each test group was harvested on the 5th day of the resting culture, and the GUS gene was expressed. The vertical axis in each of FIGS. 4, 5, and 6 represents the average of GUS gene expression by each immature embryo evaluated in six grades: 4 (expressed in 75% or more of scutellum), 3 (expressed in 50% to 74% of scutellum), 2 (expressed in 25% to 49% of scutellum), 1 (expressed in 5% to 24% of scutellum), 0.5 (expressed in 1% to 4% of scutellum), and 0 (no expression), that is, efficiency of gene introduction shown by expression of the GUS gene.

| Compound | degree of GUS gene expression relative to coculture medium not containing plant hormones (FIG. 5) | degree of GUS gene expression relative to coculture medium not containing plant hormones (FIG. 6) | degree of GUS gene expression relative to coculture medium not containing plant hormones (FIG. 4) |
| --- | --- | --- | --- |
| O=C(O)COc1ccc(Cl)cc1Cl [2,4-D, 2,4-dichlorophenoxyacetic acid] | equivalent to or slightly lower | slightly lower | – |
| O=C(Nc1ccccc1)Nc1ccncc1 [4PU] | – | – | slightly lower |
| COc1c(Cl)ccc(Cl)c1C(=O)O [dicamba] | equivalent to or slightly lower | slightly lower | – |
| c1coc(CNc2ncnc3[nH]cnc23)c1 [kinetin] | – | – | slightly lower |
| Nc1c(Cl)c(Cl)nc(C(=O)O)c1Cl [picloram] | equivalent to or slightly lower | slightly lower | – |
